# Laboratory results from patent US7611873B1, “Method for producing L-methionine by fermentation” (priority 1998, dated 2009).
# Like-named read-outs stand apart in the source and are kept apart here.
# How the values were obtained:
# Type in all cases: biochemical
# [1] = molecular target: T1, HTS derived from MM resistant strain WMM9 (arginine 27 changed to cysteine) (Escherichia coli, UniProt P07623, R27C); settings: for HTS activity in the presence of inhibitor: WMM9, no addition 5.0; for Inhibition of HTS activity (in words): WMM9 strain, compared with wild strain
# T1 construct: The HTS activity in the crude enzyme extract was measured; endogenous in cells; host or cells: E. coli WMM9 (spontaneous MM-resistant mutant of W3110), crude enzyme extract
# T1 sequence (P07623 whole entry R27C): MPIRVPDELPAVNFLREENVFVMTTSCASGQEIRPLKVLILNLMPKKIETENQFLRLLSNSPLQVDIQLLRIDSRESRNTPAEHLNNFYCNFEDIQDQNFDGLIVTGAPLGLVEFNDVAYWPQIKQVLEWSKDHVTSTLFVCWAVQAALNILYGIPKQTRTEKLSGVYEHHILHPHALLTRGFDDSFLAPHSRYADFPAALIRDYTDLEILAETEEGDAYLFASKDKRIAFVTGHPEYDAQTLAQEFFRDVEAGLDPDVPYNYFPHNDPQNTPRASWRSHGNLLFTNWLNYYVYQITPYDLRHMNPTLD
# Description: (§1) In order to confirm the effect of the metJ deletion by the recombination, a crude enzyme extract was prepared from the cells, and the activities of HTS and cystathionine synthase were measured. The W3110 strain and the WΔJ strain were each inoculated to 2 ml of LB medium, and cultured at 37° C. overnight. 1 ml of the medium was centrifuged at 5,000 rpm for 10 minutes, and the cells were washed twice with 0.9% saline. The obtained cell were suspended in 1 ml of 0.9% saline, 0.5 ml of which was inoculated to 50 ml of Davis-Mingioli minimal medium (Davis B. D., and Mingioli, E. S., J. Bacteriol., 60, 17-28 (1950)) containing 5 mM L-methionine. The cells were cultured at 37° C. for 24 hours, then the medium was centrifuged at 8,000 rpm for 10 minutes, and the cells were washed twice with 0.9% saline. The cells were suspended in 3 ml of 50 mM potassium phosphate buffer (pH 7.5) containing 1 mM dithiothreitol. This suspension was subjected to a cell disruption treatment at 4° C. with a power of 150 W for 5 minutes by using an ultrasonicator (Kubota Co.). The sonicated suspension was centrifuged at 15,000 rpm for 30 minutes, and the supernatant was desalted in a Sephadex G-50 column (Pharmacia) to obtain a crude enzyme extract. The HTS activity and the cystathionine synthase activity in the crude enzyme extract were measured.
# (§2) As for the HTS activity, 5 μl of the crude enzyme extract was added to a reaction mixture comprising 0.1 M potassium phosphate (pH 7.5), 1 mM succinyl-coenzyme A (Sigma), 0.2 nM DL-[^14C]homoserine (Muromachi Chemical Industry), and 0.2 mM L-homoserine to obtain a volume of 50 μl, and allowed to react at 30° C. for 10 minutes. 1 μl of the reaction mixture was spotted on a cellulose plate (Merck), and developed with a mixed solvent containing acetone, butanol, water, and diethylamine at a ratio of 10:10:5:2. After the plate was air-dried, autoradiography was performed by using an image analyzer (Fuji Photo Film).
# (§3) Chromosomal DNA was prepared from these resistant strains. PCR was performed by using each chromosomal DNA as a template and primers having the sequences represented as SEQ ID NOS: 21 and 22 to amplify the metA gene. The nucleotide sequence of each amplification fragment was determined by using primers for amplification of which nucleotide sequences are represented as SEQ ID NOS: 21 and 22, and primers having the sequences represented as SEQ ID NOS: 23 and 24.
# (§4) The cells were washed twice with 1 ml of 0.9% saline, and suspended in 1 ml of 0.9% saline, 0.5 ml of which was inoculated to 50 ml of minimal medium and cultured at 37° C. for one day. The medium was centrifuged at 8,000 rpm for 10 minutes, and the cells were washed twice with 1 ml of 0.9% saline. The obtained cells were suspended in 3 ml of 50 mM potassium phosphate buffer (pH 7.5) containing 1 mM dithiothreitol, and a crude enzyme extract was obtained in the same manner as in Example 1. The HTS activity in the crude enzyme extract was measured with the reaction composition mentioned in Example 1 in the presence of an inhibitor.
# [2] = molecular target: T2, HTS derived from MM resistant strain WMM4 (296th isoleucine changed to serine) (Escherichia coli, UniProt P07623, I296S); settings: for HTS activity in the presence of inhibitor: WMM4, no addition 4.5; for Inhibition of HTS activity (in words): WMM4 strain, compared with wild strain
# T2 construct: The HTS activity in the crude enzyme extract was measured; endogenous in cells; host or cells: E. coli WMM4 (spontaneous MM-resistant mutant of W3110), crude enzyme extract
# T2 sequence (P07623 whole entry I296S): as the sequence (P07623 whole entry R27C) above, with C27R, I296S counted along it
# Description: as §1, §2, §3, §4
# [3] = molecular target: T3, HTS derived from MM resistant strain WMM7 (IS2 insertion, proline 298 and subsequent residues changed) (Escherichia coli, UniProt P07623); settings: no addition 0.0 (activity undetectable)
# T3 construct: The HTS activity in the crude enzyme extract was measured; endogenous in cells; host or cells: E. coli WMM7 (MM-resistant mutant of W3110 with IS2 in metA), crude enzyme extract
# T3 sequence (P07623 other isoform, or with tags, fused parts or gaps, stated change not applied): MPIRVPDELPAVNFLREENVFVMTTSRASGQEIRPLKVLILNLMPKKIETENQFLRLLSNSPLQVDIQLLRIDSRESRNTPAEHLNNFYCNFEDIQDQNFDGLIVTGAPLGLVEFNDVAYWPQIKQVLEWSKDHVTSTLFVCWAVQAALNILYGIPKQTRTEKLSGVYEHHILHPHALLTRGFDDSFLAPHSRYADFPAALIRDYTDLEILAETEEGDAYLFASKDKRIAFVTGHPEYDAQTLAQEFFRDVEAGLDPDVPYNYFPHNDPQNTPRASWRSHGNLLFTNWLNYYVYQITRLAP
# Description: as §1, §2, §3, §4
# [4] = molecular target: T4, HTS derived from MM resistant strain WMM5 (proline 298 changed to leucine) (Escherichia coli, UniProt P07623, P298L); settings: for HTS activity in the presence of inhibitor: WMM5, no addition 4.5; for Inhibition of HTS activity (in words): WMM5 strain, compared with wild strain
# T4 construct: The HTS activity in the crude enzyme extract was measured; endogenous in cells; host or cells: E. coli WMM5 (spontaneous MM-resistant mutant of W3110), crude enzyme extract
# T4 sequence (P07623 whole entry P298L): as the sequence (P07623 whole entry R27C) above, with C27R, P298L counted along it
# Description: as §1, §2, §3, §4
# [5] = molecular target: T5, homoserine transsuccinylase (HTS) of W3110 strain (wild-type) (Escherichia coli, UniProt P07623); experiment: HTS activity in crude enzyme extract in the presence of inhibitors, W3110 (wild strain); settings: no addition 22.3
# T5 construct: The HTS activity in the crude enzyme extract was measured; endogenous in cells; host or cells: E. coli W3110 (wild strain), desalted crude enzyme extract
# T5 sequence (P07623 whole entry): as the sequence (P07623 whole entry R27C) above, with C27R counted along it
# Description: as §1, §2, §4
structure (smiles),measurement,setting,value
"C[S+](CC[C@H](N)C(=O)[O-])C[C@H]1O[C@@H](n2cnc3c(N)ncnc32)[C@H](O)[C@@H]1O (stereo partly drawn) [SAM, S-adenosylmethionine]",HTS activity in the presence of inhibitor,[1]; 0.1 mM inhibitor,1.1 mmol/min/mg protein
same,HTS activity in the presence of inhibitor,[1]; 1 mM inhibitor,0.5 mmol/min/mg protein
same,Inhibition of HTS activity (in words),[1],hardly canceled
same,HTS activity in the presence of inhibitor,[2]; 0.1 mM inhibitor,4.6 mmol/min/mg protein
same,HTS activity in the presence of inhibitor,[2]; 1 mM inhibitor,2.6 mmol/min/mg protein
same,Inhibition of HTS activity (in words),[2],tendency of cancellation
same,HTS activity in the presence of inhibitor,[3]; 0.1 mM inhibitor,0.0 mmol/min/mg protein
same,HTS activity in the presence of inhibitor,[3]; 1 mM inhibitor,0.0 mmol/min/mg protein
same,HTS activity in the presence of inhibitor,[4]; 0.1 mM inhibitor,3.6 mmol/min/mg protein
same,HTS activity in the presence of inhibitor,[4]; 1 mM inhibitor,3.3 mmol/min/mg protein
same,Inhibition of HTS activity (in words),[4],tendency of cancellation
same,HTS activity in the presence of inhibitor,[5]; 0.1 mM inhibitor,17.0 mmol/min/mg protein
same,HTS activity in the presence of inhibitor,[5]; 1 mM inhibitor,3.0 mmol/min/mg protein
"CSCC[C@H](N)C(=O)O [Met, L-methionine]",HTS activity in the presence of inhibitor,[1]; 0.1 mM inhibitor,2.5 mmol/min/mg protein
same,HTS activity in the presence of inhibitor,[1]; 1 mM inhibitor,2.2 mmol/min/mg protein
same,Inhibition of HTS activity (in words),[1],reduced considerably
same,HTS activity in the presence of inhibitor,[2]; 0.1 mM inhibitor,4.5 mmol/min/mg protein
same,HTS activity in the presence of inhibitor,[2]; 1 mM inhibitor,4.0 mmol/min/mg protein
same,Inhibition of HTS activity (in words),[2],reduced considerably
same,HTS activity in the presence of inhibitor,[3]; 0.1 mM inhibitor,0.0 mmol/min/mg protein
same,HTS activity in the presence of inhibitor,[3]; 1 mM inhibitor,0.0 mmol/min/mg protein
same,HTS activity in the presence of inhibitor,[4]; 0.1 mM inhibitor,4.2 mmol/min/mg protein
same,HTS activity in the presence of inhibitor,[4]; 1 mM inhibitor,4.0 mmol/min/mg protein
same,Inhibition of HTS activity (in words),[4],reduced considerably
same,HTS activity in the presence of inhibitor,[5]; 0.1 mM inhibitor,14.3 mmol/min/mg protein
same,HTS activity in the presence of inhibitor,[5]; 1 mM inhibitor,0.8 mmol/min/mg protein
"CSCCC(C)(N)C(=O)O (racemic) [MM, α-methyl-DL-methionine]",HTS activity in the presence of inhibitor,[1]; 0.1 mM inhibitor,4.9 mmol/min/mg protein
same,HTS activity in the presence of inhibitor,[1]; 1 mM inhibitor,2.7 mmol/min/mg protein
same,Inhibition of HTS activity (in words),[1],canceled
same,HTS activity in the presence of inhibitor,[2]; 0.1 mM inhibitor,4.1 mmol/min/mg protein
same,HTS activity in the presence of inhibitor,[2]; 1 mM inhibitor,4.6 mmol/min/mg protein
same,Inhibition of HTS activity (in words),[2],canceled
same,HTS activity in the presence of inhibitor,[3]; 0.1 mM inhibitor,0.0 mmol/min/mg protein
same,HTS activity in the presence of inhibitor,[3]; 1 mM inhibitor,0.0 mmol/min/mg protein
same,HTS activity in the presence of inhibitor,[4]; 0.1 mM inhibitor,4.6 mmol/min/mg protein
same,HTS activity in the presence of inhibitor,[4]; 1 mM inhibitor,4.8 mmol/min/mg protein
same,Inhibition of HTS activity (in words),[4],canceled
same,HTS activity in the presence of inhibitor,[5]; 0.1 mM inhibitor,18.6 mmol/min/mg protein
same,HTS activity in the presence of inhibitor,[5]; 1 mM inhibitor,7.0 mmol/min/mg protein
